# From US7399587B2, “Canine CYP1A2 genetic polymorphism” (Astellas Pharma Inc., priority 2003, dated 2008)
# Assay: Pharmacokinetics test in beagles after oral administration of Compound A (plasma, HPLC-FL method)
# Format: in vivo, beagle
# Conditions: for AUC(0-inf) / Cmax / half-life: plasma, po, 0.3 mg/kg
# Description: In this example, after oral administration of Compound A, a pharmacokinetics test was carried out, in accordance with the following procedure. In the test, a time course of changes in concentrations of the unreacted compound and metabolites was measured.
# Compound A was suspended in 0.5% methyl cellulose solution, and the suspension was orally administered to 10 male beagles (0.3 mg/kg). Blood was collected from each subject after 0.25, 0.5, 1.0, 2.0, 4.0, and 8.0 hours from the administration. Plasma was extracted by liquid-liquid extraction, and then, a time course of changes in concentrations of the unreacted compound and metabolites in plasma was measured according to a simultaneous measurement method (hereinafter referred to as HPLC-FL method) using HPLC and a fluorescence detector.
# Conditions in the HPLC-FL method measuring Compound A and metabolites simultaneously are shown in Table 9, and concentration gradients of mobile phases are shown in Table 10.
# The beagles for the pharmacokinetics test used in this example were previously selected by carrying out a phenotype analysis. In the pharmacokinetics test, 5 dogs (type I) in which the major metabolite was MM-2, and 5 dogs (type II) in which the major metabolites were MM-1 and MM-5, were used. The time course of changes in concentrations of Compound A and metabolites thereof in plasma are shown in Table 1 (type I) and Table 2 (type II)
# As pharmacokinetic parameters, time of maximum observed concentration (Tmax), concentration corresponding to Tmax (Cmax), area under the plasma concentration-time curve from the time of dosing extrapolated to infinity (AUCinf), and terminal half-life (T1/2) were calculated.
# [1] = male, beagle, dog, type I (EM) beagles, n = 5, plasma after oral Compound A 0.3 mg/kg
# [2] = male, beagle, dog, type II (PM) beagles, n = 5, plasma after oral Compound A 0.3 mg/kg
# [3] = unreacted compound in plasma, oral 0.3 mg/kg, type II (PM) vs type I (EM) beagles
compound,measurement,setting,value
"CCn1c(=O)nc(C2CCCCC2)c2ccc(C)nc21 [Compound A, 4-cyclohexyl-1-ethyl-7-methylpyrido[2,3-d]pyrimidin-2(1H)-one]",AUC(0-inf),[1],2.8 ± 1.6 ng·h/mL
same,Cmax,[1],3.2 ± 1.5 ng/mL
same,half-life,[1],36 ± 12 min
same,AUC(0-inf),[2],27.2 ± 20.2 ng·h/mL
same,Cmax,[2],24 ± 14.8 ng/mL
same,half-life,[2],48 ± 24 min
same,Tmax,[1],18 min
same,AUCinf of type II relative to type I,[3],9.7 times
same,Cmax of type II relative to type I,[3],7.5 times
